{
  "source": "paper PMC12677607",
  "about": "“Identification of a Pair of Linear or Cyclic Naturally Inspired Bifunctional Lipopeptide Antibiotics That Overcome Antimicrobial Resistance” (Advanced Science, 2025)",
  "key": {"Gram negative bacteria": {"system": "Gram negative bacteria", "set-up": "method as in 2 sources, one per row (each row's own in cited_ref): ref 27 (a number printed in a supplementary file, which may have a reference list of its own: not looked up in the article's list) ||| ref 26 = [26]; PMID 24281661; doi:10.1038/ja.2013.121; 26 S. Kozuma , Y. Hirota‐Takahata , D. Fukuda , N. Kuraya , M. Nakajima , O , A , J. Antibiot. (Tokyo) 2014 , 67 , 237 . 24281661 10.1038/ja.2013.121", "conditions": "cited from earlier work; for MIC, anti-Gram negative activity: Figure S20, known paired peptides", "text": "All 17 synAQUs were initially assayed for antimicrobial activity against four Gram‐negative bacteria, four Gram‐positive bacteria, and one fungal pathogen."}, "[1]": {"system": "K. pneumoniae CRKP 5452 PhoQL348Q", "assay": "MIC against colistin-resistant mutant", "format": "cell-based", "conditions": "Figure S127a, colistin-resistant mutant from serial passaging", "description": "(§1) All MIC assays were performed two independent times (n = 2) in 96‐well plates using a broth micro‐dilution method. The lowest concentration of that inhibited visible microbial growth was recorded as the MIC value.\n(§2) For most of bacterial strains, overnight cultures were diluted 5000‐fold in LB broth. For E. faecium and S. aureus, overnight cultures were diluted 1000‐ and 10000‐fold in LB broth, respectively. 100 µL of diluted cells was mixed with 100 µL of LB broth containing each peptide ranging from 64 to 0.125 µg mL^−1 at 2‐fold serial dilutions.\n(§3) Overnight cultures S. aureus USA300 were diluted 10000‐fold in LB broth, and 100 µL of dilute cell suspension was added to 96‐well plates containing 100 µL serially diluted aquicidine C4, telomycin, and daptomycin (with 15 mM CaCl2). Overnight cultures K. pneumoniae CRKP5452 were diluted 5000‐fold in LB broth, and 100 µL of dilute cell suspension was added to 96‐well plates containing 100 µL serially diluted aquicidine L and colistin. After an incubation of 24 h at 37 °C, the MIC value was determined. […] The MIC value was recorded as described above, and the process was repeated daily for 21 days. Experiments were performed two independent times (n = 2).\nSingle‐nucleotide polymorphisms (SNPs) for telomycin‐, daptomycin‐ or colistin‐resistant mutants were identified using SNIPPY by mapping DNBSEQ‐seq reads to the reference genome of S. aureus USA300 or K. pneumoniae CRKP5452."}, "K. pneumoniae 15580": {"system": "K. pneumoniae 15580", "assay": "MIC against colistin-resistant strain", "format": "cell-based", "conditions": "Figure S127a", "description": "as §1, §2"}, "[2]": {"system": "Klebsiella pneumoniae CRKP 5452", "assay": "microbe, parasite or virus in culture", "format": "cell-based", "conditions": "Figure S127a, wild type", "how_it_was_run": "(§4)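 Growth inhibition read visually; MIC taken as lowest inhibitory concentration. LB medium; inocula from overnight cultures diluted 5000-fold, S. aureus 10000-fold. Peptide range 64 to 0.125 µg mL^−1 (2-fold, pre-mix), two independent determinations.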"}, "[3]": {"system": "Klebsiella pneumoniae NCTC 5056", "assay": "microbe, parasite or virus in culture", "format": "cell-based", "conditions": "Figure S127a, colistin-resistant strain", "how_it_was_run": "as §4"}, "[4]": {"system": "Klebsiella pneumoniae CRKP HS11286", "assay": "microbe, parasite or virus in culture", "format": "cell-based", "conditions": "Figure S127a", "how_it_was_run": "as §4"}, "K. pneumoniae CRKP5452": {"system": "K. pneumoniae CRKP5452", "assay": "Resistance acquisition by serial passaging", "format": "cell-based", "conditions": "K. pneumoniae CRKP5452, sub-MIC levels, daily passage for 21 days, n = 2", "description": "as §3"}, "fungi": {"system": "fungi", "conditions": "Figure S20, known peptide; cited from earlier work"}},
  "data": [
    {"substance": "Brevicidine", "values": [
      {"measurement": "MIC, anti-Gram negative activity", "setting": "Gram negative bacteria", "value": "2 to 4", "unit": "µg/mL"}
    ]},
    {"substance": "Colistin [reference compound]", "values": [
      {"measurement": "antibacterial activity (MIC) K. pneumoniae CRKP 5452 PhoQL348Q", "setting": "[1]", "value": 4, "unit": "µg/mL"},
      {"measurement": "antibacterial activity (MIC) K. pneumoniae 15580", "setting": "K. pneumoniae 15580", "value": "> 64", "unit": "µg/mL"},
      {"measurement": "antibacterial activity (MIC) K. pneumoniae CRKP 5452", "setting": "[2]", "value": 0.125, "unit": "µg/mL"},
      {"measurement": "antibacterial activity (MIC) K. pneumoniae NCTC 5056", "setting": "[3]", "value": 32, "unit": "µg/mL"},
      {"measurement": "antibacterial activity (MIC) K. pneumoniae CRKP HS11286", "setting": "[4]", "value": 0.125, "unit": "µg/mL"},
      {"measurement": "increase of MIC during serial passaging", "setting": "K. pneumoniae CRKP5452", "value": 13.3, "unit": "fold"}
    ]},
    {"substance": "Keanumycin A", "values": [
      {"measurement": "anti-fungal activity", "setting": "fungi", "value": "Pot ent anti-fungal activity"}
    ]},
    {"substance": "Laterocidine", "values": [
      {"measurement": "MIC, anti-Gram negative activity", "setting": "Gram negative bacteria", "value": "2 to 4", "unit": "µg/mL"}
    ]},
    {"substance": "pedopeptin B", "values": [
      {"measurement": "anti-Gram-negative activity", "setting": "Gram negative bacteria; in words", "value": "potent anti‐Gram‐negative activity"}
    ]}
  ]
}
